From patent US12545688B2, “Camptothecin derivative and conjugate thereof” (SICHUAN BAILI PHARMACEUTICAL CO., LTD, priority 2019, dated 2026)
pIC50: −log10 of the molar value. Like-named read-outs stand apart in the source and are kept apart here.

Columns and labels:
Assay in all cases: In vitro activity test, inhibition of target cell proliferation (MTS)
Type in all cases: cell-based
[1] = test system: Bxpc-3; conditions: Homo sapiens, read-out: IC50 for the inhibition of target cell proliferation in vitro, Bxpc-3
Method: (§1) • Cells: A431, SW620, BXPC3, Fadu from the Cell Bank of the Chinese Academy of • Sciences Cell • Culture medium DMEM: Gibco • FBS: BIOWEST
(§2) • Growth medium (with 10% FBS, Penicillin/streptomycin (100 U/mL) • Detection medium (with 1% FBS, Penicillin/streptomycin (100 U/mL)
(§3) Turn on the UV light of the biological safety cabinet 30 minutes in advance, and then turn on the ventilation for 3 minutes. The growth medium, detection medium, D-PBS and trypsin were preheated in a constant temperature water bath at 37° C., and then the surfaces were disinfected with alcohol and placed in a biological safety cabinet. Place the cells with a confluence of about 80% in a biological safety cabinet, aspirate the old medium, rinse with D-PBS, aspirate and discard, digest with trypsin for 2-3 min, add growth medium to neutralize, and centrifuge. 1200 rpm, 3 min. Aspirate the centrifugation supernatant, mix with 4 mL of detection medium, and count 100 uL (50 uL of cell fluid is taken out, 50 μL of Trypan Blue Stain is added and mixed, and counted after mixing). According to the pre-optimized cell plating density, 80 ul/well was plated in a 96-well plate. Only 80 uL detection medium was added to wells E11 and F11, and 150 uL of DPBS was added to the edge wells. 24 h after plating, add diluted antibody, 20 uL per well and set control, only add 20 uL detection medium in column 11, set 2 duplicate wells for each concentration, and mix on a cell vortex shaker after adding, 550 rpm, 3 min.
(§4) Dilution of the antibody solution: use the detection medium to prepare the test solution with an initial concentration of 5 uM and 300 uL in the first column of the V-shaped 96-well plate, and then add 240 uL of detection medium to the second to 10th columns respectively, take 60 uL from the first column of mixing and add it to the second column, mix up and down with a row gun for 10 times, discard the pipette tip, and operate the following 7 concentrations in sequence.
(§5) After 4 days, take out the MTS reagent, thaw at room temperature in the dark, vortex and mix well, add 20 μL of CellTiter One Solution Reagen MTS reagent per 100 μL of cell culture volume along the side wall of the well in the biological safety cabinet, and tap gently. After the MTS solution was evenly mixed, it was placed in a cell incubator for 2 h in the dark. After the reaction, the 96-well plate was taken out, the absorbance at OD490 nm was detected in a microplate reader, and the data was recorded, organized, analyzed and stored.

[2] = test system: Fadu; conditions: Homo sapiens, 96 h, read-out: IC50 for the inhibition of target cell proliferation in vitro, Fadu
Method: as §1, §2, §3, §4, §5

[3] = test system: A431; conditions: Homo sapiens, A-431, 96 h, read-out: IC50 for the inhibition of target cell proliferation in vitro, A431
Method: as §1, §2, §3, §4, §5

[4] = test system: SW620; conditions: Homo sapiens, SW-620, 96 h, read-out: IC50 for the inhibition of target cell proliferation in vitro, SW620
Method: as §1, §2, §3, §4, §5

[5] = 96 h, Bxpc-3 cells, MTS after 4 days

SMILES | pIC50 [1, 5] | pIC50 ([2]; Fadu cells, MTS after 4 days) | pIC50 ([3]; A431 cells, MTS after 4 days) | pIC50 ([4]; SW620 cells, MTS after 4 days) | pIC50 ([1]; BXPC-3, 96 h) | pIC50 ([2]; FaDu) | pIC50 [3] | pIC50 [4]
CC[C@@]1(O)C(=O)OCc2c1cc1n(c2=O)Cc2c-1nc1cc(F)c(C)c3c1c2[C@@H](N(C)C(=O)CO)CC3 [Compound 6] | 7.88 | 8.79 | 8.44 | 7.75 | – | – | – | –
CC[C@@]1(O)C(=O)OCc2c1cc1n(c2=O)Cc2c-1nc1cc(F)c(C)c3c1c2[C@@H](N(C)C(=O)C1(O)CC1)CC3 [Compound 14] | – | – | – | – | 6.82 | 7.28 | 7.03 | 6.00 to 6.70
CCCN(C(=O)CO)[C@H]1CCc2c(C)c(F)cc3nc4c(c1c23)Cn1c-4cc2c(c1=O)COC(=O)[C@]2(O)CC [Compound 12] | – | – | – | – | 8.10 to 8.80 | 9.89 | 8.96 | 6.00 to 6.70
CC[C@@]1(O)C(=O)OCc2c1cc1n(c2=O)Cc2c-1nc1cc(F)c(C)c3c1c2[C@@H](N(C)C(=O)[C@H](C)O)CC3 [Compound 16] | 10.89 to 11.59 | 11.85 | 10.52 | 9.49 to 10.19 | – | – | – | –
